Results on three compounds are retold here after patent US4617187A, “Therapeutic method for treating radiation ulcers” (Eisai Co., Ltd., priority 1983, dated 1986).

SMILES strings stand for the structures. Entries after “also recorded” stand apart in the source; their conditions may differ.

In one series the test system is radiation ulcer. The series can be described thus: Case 2: treatment of radiation ulcer of lower abdomen after cervical cancer radiation. The series is classed as in vivo, patient. The text has this:
This patient was subjected to postoperative radiation for the treatment of cervical cancer 18 years before. […] In the Case, the hyperbaric oxygen therapy, zinc sulfate, injectable glutathione, injectable intaserine and Bendazac ointment were applied intermittently in combination. […] Thus, the coating of a therapeutic preparation to be described in Example 1, which pertains to this invention, was initiated.

Another series relates to rabbits. Nature of the series: Subacute toxicity, peroral, rabbits. The series is classed as in vivo. To be noted: peroral 60 and 600 mg/kg/day, 23 days, male and female rabbits. The procedure: (§1) Ubidecarenone was perorally administered at 40, 200 and 1,000 mg/kg/day to male and female Wistar rats continuously over a period of 5 weeks and also at 60 and 600 mg/kg/day to male and female rabbits continuously over a period of 23 days.

Series [1] relates to skin. The series can be described thus: Stability and irritation when applied to the skin (general statement).
Series [2] relates to radiation ulcers. The series can be described thus: Treatment of radiation ulcers (general statement). To be noted: administration to an ulcerated site. The series is classed as in vivo.
For series [3] the following is noted: cited from earlier work.
A further series concerns cardiac muscle. The following applies: known action, cited from earlier work.
The next series can be described thus: Blepharoirritation test. The series is classed as in vivo. To be noted: 1% in Squalane.
Series [4] has as its system skin. Nature of the series: Primary skin irritation test. The series is classed as in vivo. To be noted: 1% in Squalane.
Series [5] relates to skin. Nature of the series: Patch test. The following applies: 1% in Squalane. The series is classed as in vivo.
The test system of series [6] is skin. Nature of the series: Challenge test (Adjuvante & Patch Method). The series is classed as in vivo. The following applies: Induction: 5% in Acetone. The text has this:
|Challenge Induction: 5% Acetone

For series [7], the system named is skin. The series can be described thus: Photochallenge (optical challenge) test (Adjuvante Strip method). To be noted: Induction: 10% in Acetone. The series is classed as in vivo. The text has this: |Photo- Induction: 10% Acetone
In series [8] the test system is Wistar rats. The series can be described thus: Subacute toxicity, peroral, rats. The series is classed as in vivo. The following applies: peroral 40, 200 and 1,000 mg/kg/day, 5 weeks, male and female Wistar rats. The method, then: as §1
In series [9] the test system is skin. The series can be described thus: Phototoxicity test. The series is classed as in vivo.
Series [10] concerns Wistar rats. Nature of the series: Chronic toxicity, peroral, rats. The series is classed as in vivo. To be noted: forced peroral 6, 60 and 600 mg/kg/day, 26 weeks, female and male Wistar rats. The method, then:
Ubidecarenone was forcedly and perorally administered at 6, 60 and 600 mg/kg/day to female and male Wistar rats continuously over a straight period of 26 weeks.

Series [11] concerns skin. Nature of the series: Cumulative skin irritation test. The series is classed as in vivo. To be noted: 1% in Squalane.
The test system of series [12] is radiation ulcers. Nature of the series: Case 1: treatment of ulcer in irradiated chest wall after breast cancer. The series is classed as in vivo, patient. To be noted: Case 1, after radiotherapy 40 Gy with oily bleomycin and carmofur ointment; peroral zinc sulfate and injection of intaserine to facilitate wound healing. The text has this:
Person, The patient underwent a surgery on […] left breast cancer. It recurred in their left chest wall seven years later, resulting in the formation of a carcinomatous ulcer. This carcinomatous ulcer became resistant to the cryosurgery and carcinostatic chemotherapy, leading to need for the radiotherapy. The patient was exposed to a total radiation dose of 40 Gy while using oily bleomycin and carmofur ointment in combination with a view toward enhancing the effects of the radiotherapy. […] However, they fell down accidently at this stage and the wound was traumatized and ulcerated again. Thus, cythocrome c was injected and at the same time, Bendazac ointment was applied. […] At this stage, the coating of a therapeutic preparation to be described in Example 1, which pertains to the present invention, was started.

Setting [13] is: Case 2, prior treatment applied intermittently in combination, with hyperbaric oxygen therapy.

For `N[C@@H](CCC(=O)N[C@@H](CS)C(=O)NCC(=O)O)C(=O)O` [glutathione], the “change of the ulcer” value in the series with radiation ulcer (setting [13]) is “the ulcer was not improved”.
Regarding `COC1=C(OC)C(=O)C(C/C=C(\C)CC/C=C(\C)CC/C=C(\C)CC/C=C(\C)CC/C=C(\C)CC/C=C(\C)CC/C=C(\C)CC/C=C(\C)CC/C=C(\C)CCC=C(C)C)=C(C)C1=O` [Ubidecarenone], the “general appearance, blood, urine test and morphological observation (visual and histological) vs control” value in the series with rabbits is “No differences were observed”; in the series on Wistar rats [8], “No differences were observed”; in the series with Wistar rats [10] it was “no differences were observed”. Further, in the series with skin [1], the “irritation to the skin” value is recorded as “little irritation to the skin”. In addition, in the series with skin [1], the “stability when applied to the skin” value was “good stability”. Moreover, the “curing of radiation ulcers” value in the series on radiation ulcers [2] was “excellent curing results; also recorded: radiation ulcers can be successfully cured”. Moreover, the solubility in oil entry in series [3] (oil) was “oil-soluble”. Further, in series [3] (water or methanol), the “solubility in water or methanol” value is “hardly soluble”. The ATP-yielding function result in the series on cardiac muscle (cardiac muscle in an ischemic state) is “maintain the ATP-yielding function at a high level even when the cardiac muscle is in an ischemic state”. In addition, in the series with cardiac muscle, the “disorders of ischemic cardiac muscle tissue” value is recorded as “can reduce disorders, which the tissue of ischemic cardiac muscle would develop”. Besides, the “drop of heart contraction function” value in the series with cardiac muscle is “improve the drop of heart contraction function”. Besides, the “percentage oxygen utilization of cardiac muscle” value in the series with cardiac muscle is reported as “can improve the percentage oxygen utilization of cardiac muscle”. The “change of the ulcer” value in the series on radiation ulcer (Case 2, oral ubidecarenone therapy, 2 months) is “no change was observed as to the ulcer”. In addition, in “Blepharoirritation test”, the “Blepharoirritation, Conclusion” value is “Little blepharo-”. Besides, the “Primary irritation, Conclusion” value in the series on skin [4] is “Little skin irri-”. Besides, the “Primary irritation, Results” value in the series with skin [4] came out at 0.1. In the series with skin [5], the “Patch test, Conclusion” value is listed as “Little skin irri-”. In addition, the “Patch test, Results” value with skin [5] is reported as 0/54. Further, the “Challenge, Conclusion” value in the series on skin [6] (challenge 1% in Acetone) and in the series with skin [6] (challenge 5% in Acetone) was “Little challenge” throughout. Further, the “Challenge, Results” value in the series with skin [6] (challenge 1% in Acetone) and with skin [6] (challenge 5% in Acetone) was 0/10 in each case. Further, the “Photochallenge, Conclusion” value with skin [7] (challenge 10% in Acetone), in the series on skin [7] (challenge conc. 0.5 in Acetone), in the series on skin [7] (challenge conc. 1 in Acetone), in the series on skin [7] (challenge conc. 2 in Acetone) and in the series on skin [7] (challenge conc. 5 in Acetone) was “Little photo-” in each case. Moreover, the “Photochallenge, Results” value in the series on skin [7] (challenge 10% in Acetone), with skin [7] (challenge conc. 0.5 in Acetone), with skin [7] (challenge conc. 1 in Acetone), with skin [7] (challenge conc. 2 in Acetone) and with skin [7] (challenge conc. 5 in Acetone) was 0/5 each time. The “Phototoxicity, Conclusion” value with skin [9] (1% in Squalane) and in the series on skin [9] (10% in Squalane) was “Little phototoxicity” in each case. Also, the “Cumulative skin irritation, Conclusion” value in the series on skin [11] is recorded as “Little skin irri-”. In addition, in the series on skin [11], the “Cumulative skin irritation, Results” value amounted to 0.3.
As to `O=S(=O)([O-])[O-].[Zn+2]` [zinc sulfate], in the series on radiation ulcers [12], the ulcer outcome is “the ulcer became cancer-free and an eschar was produced”. Also, the “change of the ulcer” value in the series on radiation ulcer (setting [13]) was “the ulcer was not improved”.
